Experimental data taken from paper PMC7970697, “Inhibition and Induction by Poziotinib of Different Rat Cytochrome P450 Enzymes In Vivo and in an In Vitro Cocktail Method” (Frontiers in Pharmacology, 2021).
Like-named read-outs stand apart in the source and are kept apart here.

Key:
cyp2b1 [1] = target: T1, cyp2b1 (Rattus norvegicus, UniProt P00176); assay: Cocktail method IC50 in rat liver microsomes, bupropion probe; assay type: in vitro ADME; parameters: from tissue; host or cells: rat liver microsomes, prepared in-house
T1 sequence (P00176 1-491): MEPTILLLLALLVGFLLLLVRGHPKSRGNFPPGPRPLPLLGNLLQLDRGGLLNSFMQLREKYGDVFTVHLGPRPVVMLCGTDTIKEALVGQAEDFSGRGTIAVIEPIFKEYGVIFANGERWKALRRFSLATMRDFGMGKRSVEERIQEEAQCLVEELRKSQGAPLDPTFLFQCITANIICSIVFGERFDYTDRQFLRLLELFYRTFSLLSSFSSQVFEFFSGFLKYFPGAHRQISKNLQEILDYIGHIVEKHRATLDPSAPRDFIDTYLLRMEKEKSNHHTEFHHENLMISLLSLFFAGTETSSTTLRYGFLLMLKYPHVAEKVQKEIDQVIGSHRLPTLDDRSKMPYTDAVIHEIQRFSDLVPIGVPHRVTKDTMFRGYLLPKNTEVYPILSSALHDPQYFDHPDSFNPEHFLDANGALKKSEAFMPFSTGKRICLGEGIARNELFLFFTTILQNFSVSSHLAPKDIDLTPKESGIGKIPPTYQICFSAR
Protocol: (§1) The cocktail method was employed to analyze the effects of poziotinib on cyp1a2, cyp2b1, cyp2c11, cyp2d1, cyp2e1, and cyp3a1/2. […] Then half-maximal inhibitory concentration (IC50) of poziotinib was determined with all of the CYPs. […]. To this cocktail, 1 mg/ml of RLMs, 100 mM potassium phosphate buffer (pH 7.4), poziotinib (1, 2.5, 5, 10, 25, 50, or 100 μM) were added to obtain a final volume of 200 μL. After pre-incubation of this mixture for 5 min in a shaking water bath at 37°C, 1 mM NADPH was added to start the reaction. The reactions were allowed to proceed for 30 min, after which 200 μL of acetonitrile and 20 μL of IS were added to terminate the reactions. The mixtures were vortexed for 30 s and centrifuged again at 13,000 rpm for 5 min.

cyp2b1 [2] = target: T1, cyp2b1; assay: Effect of poziotinib on cyp2b1 activity in rats (bupropion pharmacokinetics); assay type: in vivo, Sprague-Dawley rats; parameters: from tissue; host or cells: living male Sprague-Dawley rats (whole animal); conditions: poziotinib 5 mg/kg oral 7 days, bupropion probe
Protocol: (§2) Twelve male Sprague-Dawley rats (230 ± 20 g) were randomly divided into treated and control groups, with 6 in each group. […] The supernatant was mixed with 200 μL of acetonitrile and 20 μL of 0.5 μg/ml diazepam (IS), vortexed for 30 s, centrifuged at 13,000 rpm for 5 min, and the supernatant was injected into the UPLC-MS/MS system for analysis.
(§3) Pharmacokinetic parameters were calculated using DAS software (Version 3.2.8). SPSS software (version 16.0; SPSS Inc., Chicago, IL, United States) was used to analyze the significance of differences between the main pharmacokinetic parameters. p < 0.05 was considered statistically significant. GraphPad (version 8.0; GraphPad Software Inc., San Diego, CA, United States) was used to calculate IC50 and plot the plasma concentration-time curves and inhibition plots (type of inhibition, time- and concentration-dependence).

[3] = parameters: method as in He et al., 2019; Kim T. Y. et al., 2019; conditions: treatment, ref He et al., 2019, Kim T. Y. et al.; cited from earlier work
CYP3A4 and CYP2D6 = test system: CYP3A4 and CYP2D6; parameters: method as in Kim et al., 2013; conditions: LC-MS/MS; ref Kim et al., 2013; cited from earlier work
cyp2d1 = target: T2, cyp2d1 (Rattus norvegicus, UniProt P10633); assay: Effect of poziotinib on cyp2d1 activity in rats (dextromethorphan pharmacokinetics); assay type: in vivo, Sprague-Dawley rats; parameters: from tissue; host or cells: living male Sprague-Dawley rats (whole animal); conditions: poziotinib 5 mg/kg oral 7 days, dextromethorphan probe
T2 sequence (P10633 1-504): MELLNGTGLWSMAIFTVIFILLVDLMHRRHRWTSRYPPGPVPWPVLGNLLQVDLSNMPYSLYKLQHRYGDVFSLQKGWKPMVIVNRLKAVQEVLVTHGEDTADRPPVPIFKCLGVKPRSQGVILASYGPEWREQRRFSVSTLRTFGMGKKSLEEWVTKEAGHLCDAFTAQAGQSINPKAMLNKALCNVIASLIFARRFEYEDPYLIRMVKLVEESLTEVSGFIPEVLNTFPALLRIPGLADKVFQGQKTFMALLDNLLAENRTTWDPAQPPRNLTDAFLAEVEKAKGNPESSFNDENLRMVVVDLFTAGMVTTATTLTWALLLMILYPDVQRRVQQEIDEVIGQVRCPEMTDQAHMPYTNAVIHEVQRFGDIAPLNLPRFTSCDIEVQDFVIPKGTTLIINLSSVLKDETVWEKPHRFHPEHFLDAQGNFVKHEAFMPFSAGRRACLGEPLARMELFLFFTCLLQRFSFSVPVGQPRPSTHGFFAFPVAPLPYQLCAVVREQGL
Protocol: as §2, §3

cyp3a1/2 = assay: Cocktail method IC50 in rat liver microsomes, midazolam probe; assay type: in vitro ADME
Protocol: as §1

cyp2c11 = target: T3, cyp2c11 (Rattus norvegicus, UniProt P08683); assay: Time- and concentration-dependent inhibition in RLMs, tolbutamide; assay type: in vitro ADME; parameters: from tissue; host or cells: rat liver microsomes, prepared in-house
T3 sequence (P08683 1-500): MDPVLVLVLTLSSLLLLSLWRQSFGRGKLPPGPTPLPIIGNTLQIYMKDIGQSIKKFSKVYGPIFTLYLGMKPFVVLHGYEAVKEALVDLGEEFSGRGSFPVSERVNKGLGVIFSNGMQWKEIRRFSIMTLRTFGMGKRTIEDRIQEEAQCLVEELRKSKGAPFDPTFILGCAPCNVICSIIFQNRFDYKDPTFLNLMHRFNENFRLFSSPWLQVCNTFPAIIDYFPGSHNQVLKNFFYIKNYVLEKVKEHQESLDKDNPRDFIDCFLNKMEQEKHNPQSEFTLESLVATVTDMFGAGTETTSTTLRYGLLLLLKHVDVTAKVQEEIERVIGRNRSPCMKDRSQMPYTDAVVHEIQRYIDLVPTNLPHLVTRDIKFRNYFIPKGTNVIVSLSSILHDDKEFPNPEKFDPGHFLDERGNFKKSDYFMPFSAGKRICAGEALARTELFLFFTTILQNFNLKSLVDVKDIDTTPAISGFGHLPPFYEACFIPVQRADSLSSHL
Protocol: A mixture containing 1 mg/ml of RLMs, different concentrations of poziotinib (0, 2, 4, 8 and16 μM for 2b1; 0, 5, 10 20 and 40 μM for 2c11), and NADPH was pre-incubated at 37°C for 0, 5, 10, and 20 min; Methanol instead of poziotinib was performed as control. Then 20 μM bupropion or 100 μM tolbutamide was added and incubated at 37°C for 30 min. The reactions were carried out and analyzed in triplicate as described in 2.3.

## C=CC(=O)N1CCC(Oc2cc3c(Nc4ccc(Cl)c(Cl)c4F)ncnc3cc2OC)CC1 [Poziotinib]
cyp2b1 [1]; 20 μM bupropion, cocktail, 30 min, read-out: IC50
  IC50: 8.79 µM
cyp2b1 [1]; classes after Jin et al., 2015, read-out: inhibition class by IC50, CYP2B1
  IC50: 1 to 10 µM
cyp2b1 [2]
  effect on cyp2b1 activity in rats: inhibitory effect
[3]
  common adverse reactions: rash, diarrhea, and itching
CYP3A4 and CYP2D6
  enzymes producing main metabolites M1 (dihydroxylation) and M2 (demethylation): mainly produced by CYP3A4 and CYP2D6 activity
cyp2d1
  effect on cyp2d1 activity in rats: no obvious inhibitory effect
cyp3a1/2
  inhibitory effect on cyp3a1/2 (in words): did not show any obvious inhibitory effect
cyp3a1/2; listed as poziotinib
  inhibitory effect on cyp3a1/2 (in words): not obvious
cyp3a1/2; pH 7.4, probe midazolam (5 μM), 5 μM midazolam, cocktail, 30 min
  IC50 at 30 min: 303 µM
cyp2c11; pre-incubation 0, 5, 10, 20 min, poziotinib 5-40 μM
  time- and concentration-dependent inhibition of cyp2c11: no time- or concentration-dependent inhibitory effects
cyp2c11; pre-incubation 0, 5, 10, 20 min with NADPH
  reversibility of inhibition of cyp2c11: reversible
